The results in this text go back to patent publication US20250032623A1, “HETEROBIFUNCTIONAL COMPOUNDS AND THEIR USE IN TREATING DISEASE” (HALDA THERAPEUTICS OPCO, INC., priority 2021, published 2025).

For one experiment, the system named is HEK293 cells. In words: Cellular growth inhibition assay (CellTiter-Glo), HEK293 cells. Type of experiment: cell-based. To be noted: Homo sapiens, 72 h, three days compound treatment, CellTiter-Glo 2.0, read-out: CTG HEK293 GI50. The method, boiled down: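 HEK293 or HeLa cells seeded at 500 cells/well in DMEM with 10% FBS, treated after 24 h with titrated compound for three days at 37 °C, 5% CO2. CellTiter-Glo 2.0 luminescence read on Day 0 and Day 3, normalized to DMSO, four-parameter fit giving GI50.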

For another experiment, the system named is HeLa cells. In words: Cellular growth inhibition assay (CellTiter-Glo), HeLa cells. Type of experiment: cell-based. The settings on record: Homo sapiens, 72 h, three days compound treatment, CellTiter-Glo 2.0, read-out: CTG HELA GI50. Here is the method: Exemplary compounds were tested for ability to inhibit the proliferation of HEK293 cells or HeLa cells.
HEK293 and HeLa cells were cultured in DMEM medium supplemented with 10% fetal bovine serum and 1% Penn/Strep. Cells were seeded in white 384-well plates at 500 cells/well in […] complete medium. Following seeding, plates were spun at 300×g for three minutes and cultured at 37° C. with 5% CO2 in a humidified tissue culture incubator.
After 24 hours, compounds were titrated in 100% DMSO and diluted in complete cell culture medium. […] of compound/media mixture was added to cells to bring total volume in well to […]. DMSO alone was used as a negative control. P lates were then spun at 300×g for three minutes and stored at 37° C. with 5% CO2 for three days.
On Day 0 and Day 3 of compound treatment, cell viability was quantified with CellTiter-Glo 2.0 reagent (Promega). After equilibrating microplates at room temperature for 30 minutes, 25 μL CellTiter-Glo 2.0 reagent was dispensed into each well to bring total volume to […]. Plates were mixed on shaker for 2 minutes at 500 rpm, followed by a 10-minute incubation at room temperature. Following a quick spin, luminescence readings were measured with an EnVision Plate Reader. Data was normalized to DMSO treated Day 0 and Day 3 readings. A four-parameter non-linear regression curve fit was applied to dose-response data in GraphPad Prism data analysis software to determine the half maximal growth inhibitory concentration (GI50) for each compound.

A further experiment concerns the target T1, EGFR (Homo sapiens, UniProt P00533).
T1 construct: purchased
The experiment in a line: KdELECT binding assay, EGFR. The method, boiled down:
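Competition binding: DNA- or T7 phage-tagged EGFR was incubated 1 h at room temperature with immobilized ligand beads and an 11-point 3-fold compound series (0.9% DMSO final). Bead-bound kinase was eluted and quantified by qPCR to derive Kd.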

The target of experiment [1] is T2, EGFR T790M, L858R (amino acids 669-1011 Accession Number NP_005219.2) (Homo sapiens, UniProt P00533, L858R/T790M).
T2 construct: purchased Eurofins Discovery; host or cells: mammalian cells (HEK-293)
T2 sequence (P00533 669-1011 T790M/L858R): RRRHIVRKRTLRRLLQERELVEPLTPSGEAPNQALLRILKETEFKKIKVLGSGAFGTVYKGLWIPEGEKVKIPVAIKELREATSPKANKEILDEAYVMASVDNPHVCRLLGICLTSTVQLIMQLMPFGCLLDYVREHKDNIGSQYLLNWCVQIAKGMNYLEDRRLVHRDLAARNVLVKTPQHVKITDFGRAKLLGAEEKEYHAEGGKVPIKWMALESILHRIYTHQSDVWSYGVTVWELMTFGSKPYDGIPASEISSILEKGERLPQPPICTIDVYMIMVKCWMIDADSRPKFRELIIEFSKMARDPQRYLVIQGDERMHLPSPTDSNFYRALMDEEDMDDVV
The experiment in a line: KdELECT binding assay (Eurofins Discovery), EGFR T790M, L858R. The settings on record: read-out: EGFR DM Kd. Here is the method:
(§1) Exemplary compounds were tested for ability to bind to EGFR WT (amino acids 669-1011, Accession Number NP_005219.2) or EGFR T790M, L858R (amino acids 669-1011 Accession Number NP_005219.2) expressed from bacteria or mammalian cells, respectively. Compounds were tested using the KdELECT assay at Eurofins Discovery.
(§2) Kinase-tagged T7 phage strains were prepared in an E. coli host derived from the BL21 strain. E. coli were grown to log-phase and infected with T7 phage and incubated with shaking at 32° C. until lysis. The lysates were centrifuged and filtered to remove cell debris. The remaining kinases were produced in HEK-293 cells and subsequently tagged with DNA for qPCR detection. Streptavidin-coated magnetic beads were treated with biotinylated small molecule ligands for 30 minutes at room temperature to generate affinity resins for kinase assays. The liganded beads were blocked with excess biotin and washed with blocking buffer (SeaBlock (Pierce), 1% BSA, 0.05% Tween 20, 1 mM DTT) to remove unbound ligand and to reduce non-specific binding. Binding reactions were assembled by combining kinases, liganded affinity beads, and test compounds in 1× binding buffer (20% SeaBlock, 0.17×PBS, 0.05% Tween 20, 6 mM DTT). Test compounds were prepared as 111× stocks in 100% DMSO. Kd values were determined using an 11-point 3-fold compound dilution series with three DMSO control points. All compounds for Kd measurements are distributed by acoustic transfer (non-contact dispensing) in 100% DMSO. The compounds were then diluted directly into the assays such that the final concentration of DMSO was 0.9%. All reactions performed in polypropylene 384-well plate. Each was a final volume of 0.02 mL. The assay plates were incubated at room temperature with shaking for 1 hour and the affinity beads were washed with wash buffer (1× PBS, 0.05% Tween 20). The beads were then re-suspended in elution buffer (1× PBS, 0.05% Tween 20, 0.5 μM nonbiotinylated affinity ligand) and incubated at room temperature with shaking for 30 minutes. The kinase concentration in the eluates was measured by qPCR.

Experiment [2] deals with T3, EGFR WT (amino acids 669-1011, Accession Number NP_005219.2) (Homo sapiens, UniProt P00533).
T3 construct: purchased Eurofins Discovery; host or cells: bacteria (E. coli, BL21-derived, T7 phage)
T3 sequence (P00533 669-1011): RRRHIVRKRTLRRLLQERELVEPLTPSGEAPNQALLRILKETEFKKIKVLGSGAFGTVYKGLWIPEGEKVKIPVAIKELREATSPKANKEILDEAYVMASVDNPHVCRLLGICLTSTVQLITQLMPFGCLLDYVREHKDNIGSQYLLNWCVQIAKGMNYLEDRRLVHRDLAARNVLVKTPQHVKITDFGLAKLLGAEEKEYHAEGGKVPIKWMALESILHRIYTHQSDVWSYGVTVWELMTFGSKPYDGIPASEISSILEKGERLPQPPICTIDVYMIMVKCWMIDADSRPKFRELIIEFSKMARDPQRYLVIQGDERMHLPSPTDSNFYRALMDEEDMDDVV
In words: KdELECT binding assay (Eurofins Discovery), EGFR WT. Here is the method: as §1, §2

Molecules are shown by their SMILES. Where only a bound is given, the exact number is not on record here.

T1 sequence (P00533 25-1210): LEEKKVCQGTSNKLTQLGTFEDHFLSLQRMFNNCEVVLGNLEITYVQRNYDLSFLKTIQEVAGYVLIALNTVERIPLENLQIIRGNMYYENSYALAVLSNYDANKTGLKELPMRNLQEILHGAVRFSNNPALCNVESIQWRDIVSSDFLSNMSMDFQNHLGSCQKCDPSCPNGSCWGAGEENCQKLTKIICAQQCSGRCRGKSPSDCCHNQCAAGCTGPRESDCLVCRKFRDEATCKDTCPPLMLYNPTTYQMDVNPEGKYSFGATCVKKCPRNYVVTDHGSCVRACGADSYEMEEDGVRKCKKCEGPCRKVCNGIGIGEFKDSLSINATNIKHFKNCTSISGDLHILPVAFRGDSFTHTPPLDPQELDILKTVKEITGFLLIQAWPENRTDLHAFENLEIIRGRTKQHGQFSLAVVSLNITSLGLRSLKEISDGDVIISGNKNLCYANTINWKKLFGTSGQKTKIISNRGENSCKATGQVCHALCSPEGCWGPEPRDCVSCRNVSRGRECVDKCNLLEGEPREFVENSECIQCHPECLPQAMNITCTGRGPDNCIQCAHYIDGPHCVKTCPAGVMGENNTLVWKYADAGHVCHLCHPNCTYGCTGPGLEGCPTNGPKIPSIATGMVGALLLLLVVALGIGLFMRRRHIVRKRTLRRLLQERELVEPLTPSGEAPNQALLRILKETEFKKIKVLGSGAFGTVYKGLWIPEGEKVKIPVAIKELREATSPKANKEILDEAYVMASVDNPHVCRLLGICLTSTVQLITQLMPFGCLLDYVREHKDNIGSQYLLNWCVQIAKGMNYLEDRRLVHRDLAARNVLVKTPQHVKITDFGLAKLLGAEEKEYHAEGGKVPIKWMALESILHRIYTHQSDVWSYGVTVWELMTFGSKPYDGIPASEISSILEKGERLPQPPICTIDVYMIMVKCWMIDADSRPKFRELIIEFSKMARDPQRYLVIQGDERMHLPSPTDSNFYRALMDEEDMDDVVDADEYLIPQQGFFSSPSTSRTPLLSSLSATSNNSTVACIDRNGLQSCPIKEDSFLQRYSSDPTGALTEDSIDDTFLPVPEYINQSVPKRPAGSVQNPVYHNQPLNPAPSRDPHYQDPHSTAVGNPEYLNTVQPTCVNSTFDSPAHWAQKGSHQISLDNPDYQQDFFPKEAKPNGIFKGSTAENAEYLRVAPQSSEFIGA

Take `C=CC(=O)N[C@@H]1CN(c2nc(Nc3cn(CCOCCOCCOCCOCCNC(=O)c4ccc(Nc5ncc6c(n5)N(C5CCCC5)[C@H](CC)C(=O)N6C)c(OC)c4)nc3OC)c3ncn(C)c3n2)C[C@H]1F` [Compound I-125]: the GI50 in the experiment with HEK293 cells is 1500 to 5000 nM; in the experiment on HeLa cells it was over 5000 nM. Besides, the Kd was 50 to 500 nM on EGFR, under 50 nM in experiment [1] and 50 to 500 nM in experiment [2].

Regarding `CCC1C(=O)N(C)c2cnc(Nc3ccc(C(=O)NCCOCCOCCOCCOCCN(C)CC=CC(=O)NC4CN(c5nc(Nc6cn(C)nc6OC)c6ncn(C)c6n5)CC4F)cc3OC)nc2N1C1CCCC1` [Compound I-126, 4-[[(7R)-8-cyclopentyl-7-ethyl-5-methyl-6-oxo-7H-pteridin-2-yl]amino]-N-[2-[2-[2-[2-[2-[[(E)-4-[ [(3R,4R)-4-fluoro-1-1[6-1[(3-methoxy-1-methyl-pyrazol-4-yl)amino]-9-methyl-purin-2-yl]pyrrolidin-3-yl]amino]-4-oxo-but-2-enyl]-methyl-amino]ethoxy]ethoxy]ethoxy]ethoxy]ethyl]-3-methoxy-benzamide], the GI50 with HEK293 cells was under 500 nM; with HeLa cells, 500 to 1500 nM. Further, the Kd was in the range of 500 to 2500 nM on EGFR, 50 to 500 nM in experiment [1] and 500 to 2500 nM in experiment [2].

Regarding `C=CC(=O)Nc1cc(Nc2nccc(-c3cn(C)c4ccccc34)n2)c(OC)cc1N(C)CCN(C)CCOCCON(C)C(=O)N1N=C(c2cc(F)ccc2F)S[C@@]1(CCCN)c1ccccc1` [Compound I-127, (2S)-2-(3-aminopropyl)-5-(2,5-difluorophenyl)-N-[2-[2-[2-[5-methoxy-N-methyl-4-[[4-(1-methylindol-3-yl)pyrimidin-2-yl]amino]-2-(prop-2-enoylamino)anilino]ethyl-methyl-amino]ethoxy]ethoxy]-N-methyl-2-phenyl-1,3,4-thiadiazole-3-carboxamide], the GI50 in the experiment on HEK293 cells lay in the range of 500 to 1500 nM; in the experiment on HeLa cells, 1500 to 5000 nM. Also, the Kd was 50 to 500 nM at EGFR, under 50 nM in experiment [1] and 50 to 500 nM in experiment [2].

For the compound `C=CC(=O)N[C@@H]1CN(c2nc(Nc3cn(CCOCCOCCNC(=O)c4ccc(Nc5ncc6c(n5)N(C5CCCC5)[C@H](CC)C(=O)N6C)c(OC)c4)nc3OC)c3ncn(C)c3n2)C[C@H]1F` [Compound I-128, 4-[[(7R)-8-cyclopentyl-7-ethyl-5-methyl-6-oxo-7H-pteridin-2-yl]amino]-N-[2[22-[2-[4-[[2-[(3R,4R)-3-fluoro-4-(prop-2-enoylamino)pyrrolidin-1-yl]-9-methyl-purin-6-yl]amino]-3-methoxy-pyrazol-1-yl]ethoxy]ethoxy]ethyl]-3-methoxy-benzamide], the GI50 with HEK293 cells and in the experiment with HeLa cells was 500 to 1500 nM in each case. The Kd was 50 to 500 nM at EGFR, under 50 nM in experiment [1] and 50 to 500 nM in experiment [2].

`CC[C@@H]1C(=O)N(C)c2cnc(Nc3ccc(C(=O)NCCOCCOCCOCCOCCN(C)C/C=C/C(=O)N[C@@H]4CN(c5nc(Nc6cn(C)nc6OC)c6ncn(C)c6n5)C[C@H]4F)cc3OC)nc2N1C1CCCC1` [Compound I-129, 4-[[(7R)-8-cyclopentyl-7-ethyl-5-methyl-6-oxo-7H-pteridin-2-yl]amino]-N-[2-[2-[2-[2-[2-[[(E)-4-[[(3R,4R)-4-fluoro-1-[6-[(3-methoxy-1-methyl-pyrazol-4-yl)amino]-9-methyl-purin-2-yl]pyrrolidin-3-yl]amino]-4-oxo-but-2-enyl]-methyl-amino]ethoxy]ethoxy]ethoxy]ethoxy]ethyl]-3-methoxy-benzamide]: the GI50 in the experiment with HEK293 cells and with HeLa cells was 500 to 1500 nM in each case. The Kd at EGFR lay within 500 to 2500 nM; in experiment [1], 50 to 500 nM; in experiment [2], 500 to 2500 nM.

`C=CC(=O)Nc1cc(Nc2nccc(-c3cn(C)c4ccccc34)n2)c(OC)cc1N(C)CCN(C)CCCON(C)C(=O)N1N=C(c2cc(F)ccc2F)S[C@@]1(CCCN)c1ccccc1` [Compound I-130, (2S)-2-(3-aminopropyl)-5-(2,5-difluorophenyl)-N-[3-[2-[5-methoxy-N-methyl-4-[[4-(1-methylindol-3-yl)pyrimidin-2-yl]amino]-2-(prop-2-enoylamino)anilino]ethyl-methyl-amino]propoxy]-N-methyl-2-phenyl-1,3,4-thiadiazole-3-carboxamide]: the GI50 in the experiment on HEK293 cells and in the experiment on HeLa cells was 500 to 1500 nM in each case. Further, the Kd on EGFR was 500 to 2500 nM; in experiment [1], under 50 nM; in experiment [2], 500 to 2500 nM.

For the compound `C=CC(=O)N[C@@H]1CN(c2nc(Nc3cn(CCCNC(=O)c4ccc(Nc5ncc6c(n5)N(C5CCCC5)[C@H](CC)C(=O)N6C)c(OC)c4)nc3OC)c3ncn(C)c3n2)C[C@H]1F` [Compound I-131, 4-[(8-cyclopentyl-7-ethyl-5-methyl-6-oxo-7H-pteridin-2-yl)amino]-N-[3-[4-[[2-[(3R,4R)-3-fluoro-4-(prop-2-enoylamino)pyrrolidin-1-yl]-9-methyl-purin-6-yl]amino]-3-methoxy-pyrazol-1-yl]propyl]-3-methoxy-benzamide], the GI50 with HEK293 cells and in the experiment on HeLa cells was 500 to 1500 nM in each case. Further, the Kd was 500 to 2500 nM at EGFR, under 50 nM in experiment [1] and 500 to 2500 nM in experiment [2].

Take `C=CC(=O)Nc1cc(Nc2nccc(-c3cn(C)c4ccccc34)n2)c(OC)cc1N(C)CCN(C)CCOCCOCCOCCOCCOCCOCCOc1ccc(CNc2cc(N3CCCC[C@H]3CCO)nc3c(CC)cnn23)cn1` [Compound I-133]: the GI50 in the experiment on HEK293 cells and with HeLa cells was under 500 nM each time. In addition, the Kd is 500 to 2500 nM at EGFR, under 50 nM in experiment [1] and 500 to 2500 nM in experiment [2].

As to `C=CC(=O)N[C@@H]1CN(c2nc(Nc3cn(CCOCCON(C)C(=O)N4N=C(c5cc(F)ccc5F)S[C@@]4(CCCN)c4ccccc4)nc3OC)c3ncn(C)c3n2)C[C@H]1F` [Compound I-134, (2S)-2-(3-aminopropyl)-5-(2,5-difluorophenyl)-N—[2-[2-[4-[[2-[(3R,4R)-3-fluoro-4-(prop-2-enoylamino)pyrrolidin-1-yl]-9-methyl-purin-6-yl]amino]-3-methoxy-pyrazol-1-yl]ethoxy]ethoxy]-N-methyl-2-phenyl-1,3,4-thiadiazole-3-carboxamide], the results for the GI50 in the experiment on HEK293 cells and in the experiment with HeLa cells were over 5000 nM and 1500 to 5000 nM, respectively. Further, the Kd (at EGFR; in experiment [1]; in experiment [2]) was under 50 nM in each case.
